Reference: article PMC6969166, “The molecular basis of pyrazinamide activity on Mycobacterium tuberculosis PanD” (Nature Communications, 2020)

Target: Mtb PanD Arg54 to alanine (Mycobacterium tuberculosis, UniProt P9WIL3, R54A)
Assay type: binding

O=C(O)c1cnccn1 [POA, pyrazinoic acid]
binding in ITC: no binding
